In patent publication US20090062294A1, “HETEROARYL-SUBSTITUTED UREA MODULATORS OF FATTY ACID AMIDE HYDROLASE” (priority 2007, published 2009):
Structures can show the parent of a compound that is named as a salt.

What was measured:
FAAH = molecular target: T1, FAAH (Homo sapiens, UniProt O00519); assay: Assay Method 1: FAAH assay, 3H-anandamide hydrolysis in homogenate of T84 cells or SK-N-MC cells transfected with human FAAH; format: biochemical; settings: average of results, > = solubility limit or highest concentration tested
T1 sequence (O00519 1-579): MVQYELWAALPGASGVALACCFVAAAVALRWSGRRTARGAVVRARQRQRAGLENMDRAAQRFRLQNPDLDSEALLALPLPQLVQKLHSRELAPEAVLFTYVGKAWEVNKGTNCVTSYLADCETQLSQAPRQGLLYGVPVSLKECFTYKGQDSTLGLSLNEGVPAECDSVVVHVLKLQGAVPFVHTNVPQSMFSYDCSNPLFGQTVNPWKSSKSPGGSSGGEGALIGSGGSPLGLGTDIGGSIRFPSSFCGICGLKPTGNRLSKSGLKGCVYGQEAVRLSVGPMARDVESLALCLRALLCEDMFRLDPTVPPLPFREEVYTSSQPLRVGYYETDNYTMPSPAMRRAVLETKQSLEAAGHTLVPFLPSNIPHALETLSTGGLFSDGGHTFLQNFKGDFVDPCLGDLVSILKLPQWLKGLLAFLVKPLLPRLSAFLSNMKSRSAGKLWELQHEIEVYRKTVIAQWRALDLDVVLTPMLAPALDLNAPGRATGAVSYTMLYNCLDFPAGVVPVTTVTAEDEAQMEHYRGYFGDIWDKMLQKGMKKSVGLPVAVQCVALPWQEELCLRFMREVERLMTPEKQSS
Experimental: A. Transfection of Cells with Human FAAH
(§1) A 10-cm tissue culture dish with a confluent monolayer of SK—N-MC cells was split 2 days (d) prior to transfection. Using sterile technique, the media was removed and the cells were detached from the dish by the addition of trypsin. One fifth of the cells were then placed onto a new 10-cm dish. Cells were grown in a 37° C. incubator with 5% CO2 in Minimal Essential Media Eagle with 10% Fetal Bovine Serum. After 2 d, cells were approximately 80% confluent. These cells were removed from the dish with trypsin and pelleted in a clinical centrifuge. The pellet was re-suspended in 400 μL complete media and transferred to an electroporation cuvette with a 0.4 cm gap between the electrodes. Supercoiled human FAAH cDNA (1 μg) was added to the cells and mixed. The voltage for the electroporation was set at 0.25 kV, and the capacitance was set at 960 μF. After electroporation, the cells were diluted into complete media (10 mL) and plated onto four 10-cm dishes. Because of the variability in the efficiency of electroporation, four different concentrations of cells were plated. The ratios used were 1:20, 1:10, and 1:5, with the remainder of the cells being added to the fourth dish. The cells were allowed to recover for 24 h before adding the selection media (complete media with 600 μg/mL G418). After 10 d, dishes were analyzed for surviving colonies of cells. Dishes with well-isolated colonies were used. Cells from individual colonies were isolated and tested.
(§2) T84 frozen cell pellets or transfected SK—N-MC cells (contents of 1×15 cm culture dishes) were homogenized in 50 mL of FAAH assay buffer (125 mM Tris, 1 mM EDTA, 0.2% Glycerol, 0.02% Triton X-100, 0.4 mM Hepes, pH 9). The assay mixture consisted of 50 μL of the cell homogenate, 10 μL of the test compound, and 40 μL of anandamide [1-^3H-ethanolamine] (^3H-AEA, Perkin-Elmer, 10.3 Ci/mmol), which was added last, for a final tracer concentration of 80 nM. The reaction mixture was incubated at rt for 1 h. During the incubation, 96-well Multiscreen filter plates (catalog number MAFCNOB50; Millipore, Bedford, Mass., USA) were loaded with 25 μL of activated charcoal (Multiscreen column loader, catalog number MACL09625, Millipore) and washed once with 100 μL of MeOH. Also during the incubation, 96-well DYNEX MicroLite plates (catalog number NL510410) were loaded with 100 μL of MicroScint40 (catalog number 6013641, Packard Bioscience, Meriden, Conn., USA). After the 1 h incubation, 60 μL of the reaction mixture were transferred to the charcoal plates, which were then assembled on top of the DYNEX plates using Centrifuge Alignment Frames (catalog number MACF09604, Millipore). The unbound labeled ethanolamine was centrifuged through to the bottom plate (5 min at 2000 rpm), which was preloaded with the scintillant, as described above. The plates were sealed and left at rt for 1 h before counting on a Hewlett Packard TopCount.
(§3) Compounds were tested in free base, hydrochloride salt, and/or trifluoroacetic acid salt forms.

rat FAAH = molecular target: T2, rat FAAH (Rattus norvegicus, UniProt P97612); assay: Assay Method 2: FAAH assay, 3H-anandamide hydrolysis in homogenate of SK-N-MC cells transfected with rat FAAH; format: biochemical; settings: average of results, > = solubility limit or highest concentration tested
T2 sequence (P97612 1-579): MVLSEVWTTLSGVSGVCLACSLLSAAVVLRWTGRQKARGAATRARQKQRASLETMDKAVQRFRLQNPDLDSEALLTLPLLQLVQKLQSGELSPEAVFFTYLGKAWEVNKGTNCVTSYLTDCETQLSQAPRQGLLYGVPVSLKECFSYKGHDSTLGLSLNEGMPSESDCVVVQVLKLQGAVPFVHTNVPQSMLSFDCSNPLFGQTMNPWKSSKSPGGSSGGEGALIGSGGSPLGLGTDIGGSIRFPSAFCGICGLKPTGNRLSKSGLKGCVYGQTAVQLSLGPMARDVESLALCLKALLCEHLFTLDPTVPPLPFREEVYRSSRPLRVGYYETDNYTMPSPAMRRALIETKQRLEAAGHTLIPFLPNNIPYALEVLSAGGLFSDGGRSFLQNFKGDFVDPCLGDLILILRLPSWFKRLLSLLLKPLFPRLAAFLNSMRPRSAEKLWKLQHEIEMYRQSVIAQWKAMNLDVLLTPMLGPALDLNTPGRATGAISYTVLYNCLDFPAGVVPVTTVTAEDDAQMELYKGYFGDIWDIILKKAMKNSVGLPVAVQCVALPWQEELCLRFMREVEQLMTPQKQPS
Experimental: A. Transfection of Cells with Rat FAAH
as §1, with “rat” for “human”
as §2, §3

Compound | IC50 (FAAH) [nM] | IC50 (rat FAAH) [nM]
O=C(Nc1cccc2nonc12)N1CCN(Cc2ccc3c(c2)OC(F)(F)O3)CC1 [Example 5, 4-(2,2-Difluoro-benzo[1,3]dioxol-5-ylmethyl)-piperazine-1-carboxylic acid benzo[1,2,5]oxadiazol-4-ylamide trifluoroacetic acid salt] | 170 | 1200
O=C(Nc1ccc2nn[nH]c2c1)N1CCN(Cc2ccc3c(c2)OC(F)(F)O3)CC1 [Example 6, 4-(2,2-Difluoro-benzo[1,3]dioxol-5-ylmethyl)-piperazine-1-carboxylic acid (3H-benzotriazol-5-yl)-amide trifluoroacetic acid salt] | 308 | 352
O=C(Nc1cccs1)N1CCN(Cc2ccc3c(c2)OC(F)(F)O3)CC1 [Example 7, 4-(2,2-Difluoro-benzo[1,3]dioxol-5-ylmethyl)-piperazine-1-carboxylic acid thiophen-2-ylamide] | 2000 | 2400
O=C(Nc1ccsc1)N1CCN(Cc2ccc3c(c2)OC(F)(F)O3)CC1 [Example 8, 4-(2,2-Difluoro-benzo[1,3]dioxol-5-ylmethyl)-piperazine-1-carboxylic acid thiophen-3-ylamide] | 770 | 290
O=C(Nc1ccc(Cl)nn1)N1CCC(Cc2ccc3ccccc3c2)CC1 [Example 9, 4-Naphthalen-2-ylmethyl-piperidine-1-carboxylic acid (6-chloro-pyridazin-3-yl)-amide] | 552 | 57
O=C(Nc1cnccn1)N1CCC(Cc2ccc3ccccc3c2)CC1 [Example 10, 4-Naphthalen-2-ylmethyl-piperidine-1-carboxylic acid pyrazin-2-ylamide trifluoroacetic acid salt] | 244 | 36
O=C(Nc1ccon1)N1CCC(Cc2ccc3ccccc3c2)CC1 [Example 11, 4-Naphthalen-2-ylmethyl-piperidine-1-carboxylic acid isoxazol-3-ylamide] | 1000 | 170
O=C(Nc1nc(-c2ccccc2)ns1)N1CCC(Cc2ccc3ccccc3c2)CC1 [Example 12, 4-Naphthalen-2-ylmethyl-piperidine-1-carboxylic acid (3-phenyl-[1,2,4]thiadiazol-5-yl)-amide] | 5000 | 3000
O=C(Nc1nnn[nH]1)N1CCC(Cc2ccc3ccccc3c2)CC1 [Example 13, 4-Naphthalen-2-ylmethyl-piperidine-1-carboxylic acid (1H-tetrazol-5-yl)-amide] | 5 | 87
O=C(Nc1ccn[nH]1)N1CCC(Cc2ccc3ccccc3c2)CC1 [Example 14, 4-Naphthalen-2-ylmethyl-piperidine-1-carboxylic acid (2H-pyrazol-3-yl)-amide] | 218 | 63
O=C(Nc1cccc2nonc12)N1CCC(Cc2ccc3ccccc3c2)CC1 [Example 15, 4-Naphthalen-2-ylmethyl-piperidine-1-carboxylic acid benzo[1,2,5]oxadiazol-4-ylamide] | 59 | 23
O=C(Nc1ccc2[nH]nnc2c1)N1CCC(Cc2ccc3ccccc3c2)CC1 [Example 16, 4-Naphthalen-2-ylmethyl-piperidine-1-carboxylic acid (1H-benzotriazol-5-yl)-amide] | 39 | 5
O=C(Nc1ccc2ccccc2n1)N1CCC(Cc2ccc3ccccc3c2)CC1 [Example 18, 4-Naphthalen-2-ylmethyl-piperidine-1-carboxylic acid quinolin-2-ylamide trifluoroacetic acid salt] | > 10000 | 9000
O=C(Nc1ccc2ncsc2c1)N1CCC(Cc2ccc3ccccc3c2)CC1 [Example 19, 4-Naphthalen-2-ylmethyl-piperidine-1-carboxylic acid benzothiazol-6-ylamide] | 1500 | 55
O=C(Nc1cccc2ncccc12)N1CCC(Cc2ccc3ccccc3c2)CC1 [Example 20, 4-Naphthalen-2-ylmethyl-piperidine-1-carboxylic acid quinolin-5-ylamide trifluoroacetic acid salt] | 935 | 250
O=C(Nc1noc2ccccc12)N1CCC(Cc2ccc3ccccc3c2)CC1 [Example 21, 4-Naphthalen-2-ylmethyl-piperidine-1-carboxylic acid benzo[d]isoxazol-3-ylamide] | 43 | 7
O=C(Nc1noc2ccccc12)N1CCC(Cc2ccc(F)cc2)CC1 [Example 22, 4-(4-Fluoro-benzyl)-piperidine-1-carboxylic acid benzo[d]isoxazol-3-ylamide] | 108 | 77
O=C(Nc1ccc(Cl)nn1)N1CCC(Cc2cccc(C(F)(F)F)c2)CC1 [Example 25, 4-(3-Trifluoromethyl-benzyl)-piperidine-1-carboxylic acid (6-chloro-pyridazin-3-yl)-amide] | 1300 | 1300
O=C(Nc1ccon1)N1CCC(Cc2cccc(C(F)(F)F)c2)CC1 [Example 26, 4-(3-Trifluoromethyl-benzyl)-piperidine-1-carboxylic acid isoxazol-3-ylamide] | 5000 | 1000
O=C(Nc1noc2ccccc12)N1CCC(Cc2cccc(C(F)(F)F)c2)CC1 [Example 27, 4-(3-Trifluoromethyl-benzyl)-piperidine-1-carboxylic acid benzo[d]isoxazol-3-ylamide] | 77 | 47
